Experimental data as given in paper PMC5829162, “Rational Design, Synthesis and Biological Evaluation of Pyrimidine-4,6-diamine derivatives as Type-II inhibitors of FLT3 Selective Against c-KIT” (Scientific Reports, 2018).
Where two headings read alike, the source gives them in different places.

Assays:
FLT3 kinase = molecular target: T1, FLT3 kinase (Homo sapiens, UniProt P36888); experiment: Biochemical enzyme inhibition assay (microfluidics, Caliper EZ Reader II), FLT3; settings: for IC50: in vitro kinase assay, 60 min pre-incubation, ATP 190 µM, three independent experiments, read-out: FLT3 IC50 (nM) ± SD; for LE: ligand efficiency for FLT3 inhibition
T1 construct: purchased Invitrogen
T1 sequence (P36888 27-993): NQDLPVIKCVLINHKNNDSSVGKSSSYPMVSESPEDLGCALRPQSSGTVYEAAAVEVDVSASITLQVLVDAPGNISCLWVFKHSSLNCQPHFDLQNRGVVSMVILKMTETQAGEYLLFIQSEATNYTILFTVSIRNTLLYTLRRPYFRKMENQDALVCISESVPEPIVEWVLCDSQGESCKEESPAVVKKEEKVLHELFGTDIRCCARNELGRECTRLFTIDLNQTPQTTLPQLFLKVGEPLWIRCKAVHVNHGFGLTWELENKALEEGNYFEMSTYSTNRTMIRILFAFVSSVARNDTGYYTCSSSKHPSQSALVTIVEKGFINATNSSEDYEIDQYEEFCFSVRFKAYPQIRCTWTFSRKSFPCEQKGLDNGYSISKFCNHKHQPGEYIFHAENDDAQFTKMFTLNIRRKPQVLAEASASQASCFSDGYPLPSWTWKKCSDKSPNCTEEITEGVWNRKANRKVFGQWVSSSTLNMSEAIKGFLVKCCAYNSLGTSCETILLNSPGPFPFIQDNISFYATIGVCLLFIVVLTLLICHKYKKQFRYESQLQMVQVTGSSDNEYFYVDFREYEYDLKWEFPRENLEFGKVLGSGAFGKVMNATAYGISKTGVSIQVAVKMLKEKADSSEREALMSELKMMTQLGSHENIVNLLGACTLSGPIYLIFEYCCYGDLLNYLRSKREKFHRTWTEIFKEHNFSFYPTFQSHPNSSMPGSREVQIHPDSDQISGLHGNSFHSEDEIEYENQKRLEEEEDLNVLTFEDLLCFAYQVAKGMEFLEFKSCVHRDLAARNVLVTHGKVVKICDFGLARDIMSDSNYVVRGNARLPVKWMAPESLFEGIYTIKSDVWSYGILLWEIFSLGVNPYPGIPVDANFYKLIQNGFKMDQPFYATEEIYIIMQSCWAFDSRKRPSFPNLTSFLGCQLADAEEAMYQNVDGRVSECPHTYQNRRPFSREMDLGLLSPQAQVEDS

Ba/F3 FLT3-ITD = experiment: Cell proliferation (CellTiter-Glo, 48 h), Ba/F3 FLT3-ITD; format: cell-based
Excerpt: (§1) Stable BaF3 populations expressing activated FLT3 were generated by retroviral spinfection with the appropriate mutated plasmid followed by selection and growth factor withdrawal as previously described. The BaF3 cell line was originally obtained from the laboratory of Charles Sawyers and has not been authenticated. MV411 and Molm14 cells were obtained from the laboratory of Scott Kogan and authenticated by Promega STR analysis in June 2013. All cell lines were mycoplasma-free. Cells were incubated with compounds for 48 hours and proliferation was assessed using CellTiter-Glo (Promega; Madison, WI) according to the manufacturer’s recommendation on a SpectraMax M3 microplate reader using SpectraMax Software (Molecular Devices; Sunnyvale, CA). All cell viability data shown is reflective of experiments performed a minimum of three times. […]
(§2) S13. Cell Cultures: Stable BaF3 populations expressing activated FLT3 were generated by retroviral spinfection with the appropriate mutated plasmid followed by selection and growth factor withdrawal as previously described .4 The BaF3 cell line was originally obtained from the laboratory of Charles Sawyers and has not been authenticated. MV411 and Molm14 cells were obtained from the laboratory of Scott Kogan and authenticated by Promega STR analysis in June
(§3) 2013. All cell lines were mycoplasma -free. Cells were incubated with compounds for 48 hours and proliferation was assessed using CellTiter -Glo (Promega; Madison, WI) according to the manufacturer’s recommendation on a SpectraMax M3 microplate reader using SpectraMax Software (Molecular Devices; Sunnyvale, CA). All cell viability data shown is reflective of experiments performed a minimum of three times.

CSF-1R = CSF-1R (Homo sapiens, UniProt P07333); experiment: Biochemical kinase selectivity assay, CSF-1R
Sequence of CSF-1R (P07333 20-972, species assumed): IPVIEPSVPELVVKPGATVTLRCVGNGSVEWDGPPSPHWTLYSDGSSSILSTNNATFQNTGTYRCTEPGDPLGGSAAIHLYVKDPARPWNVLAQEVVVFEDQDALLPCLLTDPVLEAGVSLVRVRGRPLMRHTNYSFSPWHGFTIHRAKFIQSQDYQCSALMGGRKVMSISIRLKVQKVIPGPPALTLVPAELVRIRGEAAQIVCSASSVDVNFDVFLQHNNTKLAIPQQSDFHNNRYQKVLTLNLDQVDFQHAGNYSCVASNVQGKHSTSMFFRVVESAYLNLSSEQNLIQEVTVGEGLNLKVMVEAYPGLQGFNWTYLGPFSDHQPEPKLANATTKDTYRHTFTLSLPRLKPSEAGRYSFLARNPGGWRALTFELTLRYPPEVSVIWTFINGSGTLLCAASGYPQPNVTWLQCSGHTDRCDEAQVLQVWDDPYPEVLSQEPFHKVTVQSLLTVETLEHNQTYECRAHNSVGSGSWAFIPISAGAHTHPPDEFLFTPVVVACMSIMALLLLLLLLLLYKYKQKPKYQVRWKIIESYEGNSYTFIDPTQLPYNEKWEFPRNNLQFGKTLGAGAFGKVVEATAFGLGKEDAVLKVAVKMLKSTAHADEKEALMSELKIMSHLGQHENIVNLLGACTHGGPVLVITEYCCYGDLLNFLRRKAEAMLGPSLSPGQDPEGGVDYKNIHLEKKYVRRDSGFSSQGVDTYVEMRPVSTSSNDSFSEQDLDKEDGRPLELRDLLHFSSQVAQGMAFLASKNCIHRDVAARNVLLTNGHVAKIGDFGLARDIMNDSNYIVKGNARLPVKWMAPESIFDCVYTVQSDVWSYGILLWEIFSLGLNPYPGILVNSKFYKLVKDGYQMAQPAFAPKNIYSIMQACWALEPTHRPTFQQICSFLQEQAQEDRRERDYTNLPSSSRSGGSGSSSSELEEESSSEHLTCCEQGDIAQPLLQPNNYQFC

Molm14 par = experiment: Cell proliferation (CellTiter-Glo, 48 h), Molm14 par; format: cell-based; settings: Homo sapiens, MOLM-14
Excerpt: as §1, §2, §3

Aurora B = Aurora B (Homo sapiens, UniProt Q96GD4); experiment: Biochemical kinase selectivity assay, Aurora B
Sequence of Aurora B (Q96GD4 whole entry): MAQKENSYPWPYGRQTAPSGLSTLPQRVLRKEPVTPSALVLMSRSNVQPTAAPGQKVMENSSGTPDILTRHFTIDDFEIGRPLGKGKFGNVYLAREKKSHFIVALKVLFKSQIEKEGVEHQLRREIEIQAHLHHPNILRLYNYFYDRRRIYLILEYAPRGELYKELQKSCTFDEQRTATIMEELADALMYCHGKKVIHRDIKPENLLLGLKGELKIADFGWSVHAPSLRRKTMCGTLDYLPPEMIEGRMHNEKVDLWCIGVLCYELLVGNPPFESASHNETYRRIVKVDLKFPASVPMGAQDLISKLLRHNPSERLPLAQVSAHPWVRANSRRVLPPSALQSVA

MV4–11 AML cells = experiment: Cell proliferation (CellTiter-Glo, 48 h), MV4-11; format: cell-based; settings: Homo sapiens; MV4–11, 48 hours
Excerpt: as §1, §2, §3

| fold less inhibition on other closely related kinases versus FLT3 (FLT3 kinase; enzymatic level) | IC50 (FLT3 kinase) | LE (FLT3 kinase) | melting point | GI50 (Ba/F3 FLT3-ITD) | IC50 (CSF-1R; in vitro kinase assay, read-out: CSF-1R IC50 (nM) ± SD) | IC50 (CSF-1R; read-out: CSF-1R IC50) | GI50 (Molm14 par) | inhibition at 20 µM (Aurora B) | GI50 (MV4–11 AML cells) | fold less active than 13a on FLT3 (FLT3 kinase; enzymatic FLT3 IC50 compared with 13a) | inhibition at 20 µM (CSF-1R; at 20 µM) | Structure (SMILES) |
| --- | --- | --- | --- | --- | --- | --- | --- | --- | --- | --- | --- | --- |
| > 100 fold | 13.9 nM | 0.28 | 134 to 136 °C | 131 nM | 13000 nM | 13000 nM | 24.4 nM | 79.8% | 9.9 nM |  |  | Cn1nc(C(C)(C)C)cc1NC(=O)Cc1ccc(Nc2cc(Nc3ccc(S(C)(=O)=O)cc3)ncn2)cc1 [13a, 2-(4-(6-(4-(Methylsulfonyl)phenylamino)pyrimidin-4-ylamino)phenyl)-N-(3-tert-butyl-1-methyl-1H-pyrazol-5-yl)acetamide] |
|  | 63 nM | 0.27 | 168 to 170 °C | 40.5 nM |  |  | 19.8 nM | 71.9% | 7.2 nM | ~ 5 fold | 60.7% | CC(C)(C)c1cc(NC(=O)Cc2ccc(Nc3cc(Nc4ccc(S(C)(=O)=O)cc4)ncn3)cc2)no1 [13k, 2-(4-(6-(4-(Methylsulfonyl)phenylamino)pyrimidin-4-ylamino)phenyl)-N-(5-tert-butylisoxazol-3-yl)acetamide] |
